Reference: patent US3960949A, “1,2-Biguanides” (Schering Aktiengesellschaft, priority 1971, dated 1976)

test: in vivo; details: mouse, po
Procedure: Five days after administration of the substance, the number of surviving animals was determined. […] The LD50 values were in each case based on the free base.

Row | Structure (SMILES) | LD50 at 120 h
1 | CCN=C(NC(=N)N)N(CC)CC.O=[N+]([O-])O [1,1,2-Triethylbiguanide, 1,1,2-Triethylbiguanide Nitrate] | > 2000 mg/kg
2 | Br.CC(C)N=C(NC(=N)N)NC(C)C [1,2-Diisopropylbiguanide, 1,2-Diisopropylbiguanide Hydrobromide] | > 2000 mg/kg
3 | CCCCN/C(=N\CC)NC(=N)N [1-Ethyl-2-n-butylbiguanide] | > 2000 mg/kg
4 | CCCN=C(NC)NC(=N)N.Cl [1-Methyl-2-n-propylbiguanide, 1-Methyl-2-n-propylbiguanide Hydrochloride] | > 2000 mg/kg
5 | CN/C(=N\CCc1ccccc1)NC(=N)N [1-Methyl-2-β-phenethylbiguanide, 2-Methyl-1-β-phenethylbiguanide Nitrate] | 2830 mg/kg

test: not given; details: in vivo; cited from earlier work

Row | Structure (SMILES) | gastrointestinal compatibility
6 | CCCCNC(=N)NC(=N)N [1-Butylbiguanide, 1-butylbiguanide] | gastrointestinal incompatibility
7 | [H]/N=C(/N)N/C(=N/[H])NCCc1ccccc1 [Phenformin, 1-β-phenethylbiguanide] | gastrointestinal incompatibility
